Measured values: patent US20100010057A1, “THIAZOLE DERIVATIVES AS INHIBITORS OF P13 KINASE” (CHROMA THERAPEUTICS LTD., priority 2006, published 2010)

Columns and labels:
[1] = molecular target: PI3Kγ (human) (Homo sapiens, UniProt P48736); assay: Inhibition of PI3 kinase γ activity (HTRF); format: biochemical; details: ATP at or close to Km, IC50 range, read-out: Inhibitor activity versus PI3 Kinase γ
Description: (B) Inhibition of PI3 Kinase V Activity
In a final reaction volume of 20 μl, PI3Kγ (human) is incubated in assay buffer containing 10 μM phosphatidylinositol-4,5-bisphosphate and MgATP (concentration as required). The reaction is initiated by the addition of the MgATP mix. After incubation for 30 minutes at room temperature, the reaction is stopped by the addition of 5 μl of stop solution containing EDTA and biotinylated phosphatidylinositol-3,4,5-trisphosphate. Finally, 5 μl of detection buffer is added, which contains europium-labelled anti-GST monoclonal antibody, GST-tagged GRP1 PH domain and streptavidin-allophycocyanin. The plate is then read in time-resolved fluorescence mode and the homogenous time-resolved fluorescence (HTRF) signal is determined according to the formula HTRF=10000×(Em665 nm/Em620 nm).
Duplicate data points are generated from a ⅓ log dilution series of a stock solution of compound in DMSO. Nine dilutions steps are made from a top concentration of 10 μM, and a ‘no compound’ blank is included. The HTRF PI 3-Kinase assay is performed at an ATP concentration at, or close to, the Km. HTRF ratio data is transformed into % activity of controls and analysed with a four parameter sigmoidal dose-response (variable slope) application. QC criteria is based on Top, Bottom, Hill slope, r^2 and IC50, the concentration giving 50% inhibition, which is reported.
(§1) For each of the assays (B), (C) and (D) above, IC50 values are allocated to one of three ranges as follows: […]

[2] = tested on: THP-1 cells; assay: LPS-stimulation of THP-1 cells, TNF-α release; format: cell-based; details: Homo sapiens, LPS 1 μg/ml, 6 h, TNF-α by ELISA, IC50 range, read-out: Inhibitor activity versus THP-1 TNFα release
Description: (C) LPS-Stimulation of THP-1 Cells
THP-1 cells are plated in 100 μl at a density of 4×10^4 cells/well in V-bottomed 96 well tissue culture treated plates and incubated at 37° C. in 5% CO2 for 16 h. 2 h after the addition of the inhibitor in 100 μl of tissue culture media, the cells are stimulated with LPS (E. coli strain 005:B5, Sigma) at a final concentration of 1 μg/ml and incubated at 37° C. in 5% CO2 for 6 h. TNF-α levels are measured from cell-free supernatants by sandwich ELISA (R&D Systems #QTA00B)
as §1

Chain of PI3Kγ (human) (P48736 whole entry): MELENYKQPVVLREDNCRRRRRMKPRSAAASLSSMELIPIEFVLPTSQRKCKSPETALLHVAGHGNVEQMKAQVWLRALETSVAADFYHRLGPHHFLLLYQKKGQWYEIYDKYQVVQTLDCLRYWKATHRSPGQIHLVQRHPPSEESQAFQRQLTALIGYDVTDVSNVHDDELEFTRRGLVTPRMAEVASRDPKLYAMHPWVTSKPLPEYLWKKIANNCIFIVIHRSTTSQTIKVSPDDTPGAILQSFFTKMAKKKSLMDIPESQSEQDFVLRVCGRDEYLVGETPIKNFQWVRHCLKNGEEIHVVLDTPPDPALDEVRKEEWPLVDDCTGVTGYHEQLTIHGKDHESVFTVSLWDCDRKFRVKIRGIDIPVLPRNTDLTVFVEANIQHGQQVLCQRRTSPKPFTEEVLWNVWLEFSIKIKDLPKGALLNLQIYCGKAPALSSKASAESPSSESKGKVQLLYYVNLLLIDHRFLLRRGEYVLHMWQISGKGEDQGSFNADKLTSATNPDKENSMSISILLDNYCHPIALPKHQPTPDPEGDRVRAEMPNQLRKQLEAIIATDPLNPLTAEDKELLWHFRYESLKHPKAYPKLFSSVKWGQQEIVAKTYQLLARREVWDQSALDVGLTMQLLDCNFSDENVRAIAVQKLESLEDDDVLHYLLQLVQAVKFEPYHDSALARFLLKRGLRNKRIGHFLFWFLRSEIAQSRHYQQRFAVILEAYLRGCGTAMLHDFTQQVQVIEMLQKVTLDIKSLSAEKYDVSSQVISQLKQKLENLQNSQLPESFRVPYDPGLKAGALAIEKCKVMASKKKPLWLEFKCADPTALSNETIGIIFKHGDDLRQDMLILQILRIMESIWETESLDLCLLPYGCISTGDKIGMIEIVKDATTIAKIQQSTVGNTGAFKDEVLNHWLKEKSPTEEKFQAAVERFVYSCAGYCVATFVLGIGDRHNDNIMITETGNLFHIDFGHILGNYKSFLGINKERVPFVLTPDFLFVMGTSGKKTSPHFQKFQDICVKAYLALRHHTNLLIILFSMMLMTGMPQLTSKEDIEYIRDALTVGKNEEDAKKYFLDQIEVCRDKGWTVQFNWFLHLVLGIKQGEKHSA

Compound | IC50 [1] [nM] | IC50 [2] [nM]
Cc1nc(NC(=O)CCCN[C@@H](Cc2ccccc2)C(=O)OC2CCCC2)sc1-c1ccc(Cl)c(S(C)(=O)=O)c1 [Example 11, Cyclopentyl N-[4-({5-[4-chloro-3-(methylsulfonyl)phenyl]-4-methyl-1,3-thiazol-2-yl}amino)-4-oxobutyl]-L-phenylalaninate] | > 1000 | > 1000
Cc1nc(NC(=O)CCN[C@@H](C)C(=O)OC2CCCC2)sc1-c1ccc(Cl)c(S(C)(=O)=O)c1 [Example 16, Cyclopentyl N-[3-({5-[4-chloro-3-(methylsulfonyl)phenyl]-4-methyl-1,3-thiazol-2-yl}amino)-3-oxopropyl]-L-alaninate] | > 1000 | 100 to 1000
Cc1nc(NC(=O)CCCN[C@@H](C(=O)OC2CCCC2)c2ccccc2)sc1-c1ccc(Cl)c(S(C)(=O)=O)c1 [Example 9, Cyclopentyl (2R)-{[4-({5-[4-chloro-3-(methylsulfonyl)phenyl]-4-methyl-1,3-thiazol-2-yl}amino)-4-oxobutyl]amino}(phenyl)acetate] | 100 to 1000 | > 1000
Cc1nc(NC(=O)N[C@@H](COC(C)(C)C)C(=O)OC2CCCC2)sc1-c1ccc(Cl)c(S(C)(=O)=O)c1 [Example 4, Cyclopentyl O-tert-butyl-N-({5-[4-chloro-3-(methylsulfonyl)phenyl]-4-methyl-1,3-thiazol-2-yl}carbamoyl)-L-serinate] | 100 to 1000 | > 1000
Cc1nc(NC(=O)CCCN[C@@H](COC(C)(C)C)C(=O)OC(C)(C)C)sc1-c1ccc(Cl)c(S(C)(=O)=O)c1 [Example 15, tert-Butyl O-tert-butyl-N-[4-({5-[4-chloro-3-(methylsulfonyl)phenyl]-4-methyl-1,3-thiazol-2-yl}amino)-4-oxobutyl]-L-serinate] | > 1000 | > 1000
Cc1nc(NC(=O)CCCN[C@H](C(=O)OC2CCCC2)c2ccccc2)sc1-c1ccc(Cl)c(S(C)(=O)=O)c1 [Example 10, Cyclopentyl (2S)-{[4-({5-[4-chloro-3-(methylsulfonyl)phenyl]-4-methyl-1,3-thiazol-2-yl}amino)-4-oxobutyl]amino}(phenyl)acetate] | 100 to 1000 | > 1000
Cc1nc(NC(=O)CCCN[C@@H](COC(C)(C)C)C(=O)OC2CCCC2)sc1-c1ccc(Cl)c(S(C)(=O)=O)c1 [Example 12, Cyclopentyl O-tert-butyl-N-[4-({5-[4-chloro-3-(methylsulfonyl)phenyl]-4-methyl-1,3-thiazol-2-yl}amino)-4-oxobutyl]-L-serinate] | > 1000 | > 1000
Cc1nc(NC(=O)CCCN[C@H](C(=O)OC2CCCC2)C2CCCCC2)sc1-c1ccc(Cl)c(S(C)(=O)=O)c1 [Example 13, Cyclopentyl (2S)-{[4-({5-[4-chloro-3-(methylsulfonyl)phenyl]-4-methyl-1,3-thiazol-2-yl}amino)-4-oxobutyl]amino}(cyclohexyl)acetate] | > 1000 | > 1000
Cc1nc(NC(=O)CCCN[C@@H](CC(C)C)C(=O)OC(C)(C)C)sc1-c1ccc(Cl)c(S(C)(=O)=O)c1 [Example 14, tert-Butyl N-[4-({5-[4-chloro-3-(methylsulfonyl)phenyl]-4-methyl-1,3-thiazol-2-yl}amino)-4-oxobutyl]-L-leucinate] | > 1000 | > 1000

Other lines, results leading:

IC50 [1] [nM] | IC50 [2] [nM] | Compound
> 1000 | > 1000 | CC(=O)Nc1nc(C)c(-c2ccc(Cl)c(S(=O)(=O)NCCN[C@@H](CC(C)C)C(=O)OC3CCCC3)c2)s1 [Example 22, Cyclopentyl N-[2-({[5-(2-acetamido-4-methyl-1,3-thiazol-5-yl)-2-chlorophenyl]sulfonyl}amino)ethyl]-L-leucinate]
> 1000 | > 1000 | Cc1nc(NC(=O)N[C@@H](CO)C(=O)OC2CCCC2)sc1-c1ccc(Cl)c(S(C)(=O)=O)c1 [Example 23, Cyclopentyl N-({5-[4-chloro-3-(methylsulfonyl)phenyl]-4-methyl-1,3-thiazol-2-yl}carbamoyl)-L-serinate]
100 to 1000 | > 1000 | CC(=O)Nc1nc(C)c(-c2ccc(Cl)c(S(=O)(=O)N[C@@H](CO)C(=O)OC3CCCC3)c2)s1 [Example 25, Cyclopentyl N-{[5-(2-acetamido-4-methyl-1,3-thiazol-5-yl)-2-chlorophenyl]sulfonyl}-L-serinate]
100 to 1000 | > 1000 | CC(=O)Nc1nc(C)c(-c2ccc(Cl)c(S(=O)(=O)N[C@@H](COC(C)(C)C)C(=O)OC3CCCC3)c2)s1 [Example 21, Cyclopentyl N-{[5-(2-acetamido-4-methyl-3-thiazol-5-yl)-2-chlorophenyl]sulfonyl}-O-tert-butyl-L-serinate]
> 1000 | > 1000 | Cc1nc(NCCCN[C@@H](CC(C)C)C(=O)OC2CCCC2)sc1-c1ccc(Cl)c(S(C)(=O)=O)c1 [Example 17, Cyclopentyl N-[3-({5-[4-chloro-3-(methylsulfonyl)phenyl]-4-methyl-1,3-thiazol-2-yl}amino)propyl]-L-leucinate]
< 100 | > 1000 | Cc1nc(NC(=O)CCCN[C@@H](COP(=O)(O)O)C(=O)OC2CCCC2)sc1-c1ccc(Cl)c(S(C)(=O)=O)c1 [Example 26, Cyclopentyl N-[4-({5-[4-chloro-3-(methylsulfonyl)phenyl]-4-methyl-1,3-thiazol-2-yl}amino)-4-oxobutyl]-O-phosphono-L-serinate]
< 100 | > 1000 | CC(=O)Nc1nc(C)c(-c2ccc(Cl)c(S(=O)(=O)N[C@@H](C)C(=O)OC3CCCC3)c2)s1 [Example 20, Cyclopentyl N-{[5-(2-acetamido-4-methyl-1,3-thiazol-5-yl)-2-chlorophenyl]sulfonyl}-L-alaninate]
> 1000 |  | Cc1nc(NC(=O)CCCN[C@@H](CCC(=O)O)C(=O)O)sc1-c1ccc(Cl)c(S(C)(=O)=O)c1 [Example 33, N-[4-({5-[4-Chloro-3-(methylsulfonyl)phenyl]-4-methyl-1,3-thiazol-2-yl}amino)-4-oxobutyl]-L-glutamic acid]
> 1000 |  | Cc1nc(NC(=O)CCCN[C@@H](CO)C(=O)O)sc1-c1ccc(Cl)c(S(C)(=O)=O)c1 [Example 45, N-[4-({5-[4-Chloro-3-(methylsulfonyl)phenyl]-4-methyl-1,3-thiazol-2-yl}amino)-4-oxobutyl]-L-serine]
> 1000 | > 1000 | Cc1nc(NCC2CCC(N[C@@H](CC(C)C)C(=O)OC3CCCC3)CC2)sc1-c1ccc(Cl)c(S(C)(=O)=O)c1 (stereo partly drawn) [Example 18, Cyclopentyl N-{4-[({5-[4-chloro-3-(methylsulfonyl)phenyl]-4-methyl-1,3-thiazol-2-yl}amino)methyl]cyclohexyl}-L-leucinate]
> 1000 |  | Cc1nc(NC(=O)CCCN[C@H](C(=O)O)c2ccccc2)sc1-c1ccc(Cl)c(S(C)(=O)=O)c1 [Example 35, (2S)-{[4-({5-[4-Chloro-3-(methylsulfonyl)phenyl]-4-methyl-1,3-thiazol-2-yl}amino)-4-oxobutyl]amino}(phenyl)acetic acid]
> 1000 |  | Cc1nc(NC(=O)CCCN[C@@H](COC(C)(C)C)C(=O)O)sc1-c1ccc(Cl)c(S(C)(=O)=O)c1 [Example 37, O-tert-Butyl-N-[4-({5-[4-chloro-3-(methylsulfonyl)phenyl]-4-methyl-1,3-thiazol-2-yl}amino)-4-oxobutyl]-L-serine]
